The record followed here is US20220332700A1, “NOVEL APOPTOSIS SIGNAL-REGULATING KINASE 1 INHIBITORS” (MANKIND PHARMA LTD, priority 2019, published 2022).

In general, IC50 refers to the midpoint of a concentration-inhibition curve.

The target of one assay is T1, Human ASK1 (Homo sapiens, UniProt Q99683).
T1 construct: expressed in transfected cells; host or cells: HEK293T-AP1
T1 sequence (Q99683 1-1374): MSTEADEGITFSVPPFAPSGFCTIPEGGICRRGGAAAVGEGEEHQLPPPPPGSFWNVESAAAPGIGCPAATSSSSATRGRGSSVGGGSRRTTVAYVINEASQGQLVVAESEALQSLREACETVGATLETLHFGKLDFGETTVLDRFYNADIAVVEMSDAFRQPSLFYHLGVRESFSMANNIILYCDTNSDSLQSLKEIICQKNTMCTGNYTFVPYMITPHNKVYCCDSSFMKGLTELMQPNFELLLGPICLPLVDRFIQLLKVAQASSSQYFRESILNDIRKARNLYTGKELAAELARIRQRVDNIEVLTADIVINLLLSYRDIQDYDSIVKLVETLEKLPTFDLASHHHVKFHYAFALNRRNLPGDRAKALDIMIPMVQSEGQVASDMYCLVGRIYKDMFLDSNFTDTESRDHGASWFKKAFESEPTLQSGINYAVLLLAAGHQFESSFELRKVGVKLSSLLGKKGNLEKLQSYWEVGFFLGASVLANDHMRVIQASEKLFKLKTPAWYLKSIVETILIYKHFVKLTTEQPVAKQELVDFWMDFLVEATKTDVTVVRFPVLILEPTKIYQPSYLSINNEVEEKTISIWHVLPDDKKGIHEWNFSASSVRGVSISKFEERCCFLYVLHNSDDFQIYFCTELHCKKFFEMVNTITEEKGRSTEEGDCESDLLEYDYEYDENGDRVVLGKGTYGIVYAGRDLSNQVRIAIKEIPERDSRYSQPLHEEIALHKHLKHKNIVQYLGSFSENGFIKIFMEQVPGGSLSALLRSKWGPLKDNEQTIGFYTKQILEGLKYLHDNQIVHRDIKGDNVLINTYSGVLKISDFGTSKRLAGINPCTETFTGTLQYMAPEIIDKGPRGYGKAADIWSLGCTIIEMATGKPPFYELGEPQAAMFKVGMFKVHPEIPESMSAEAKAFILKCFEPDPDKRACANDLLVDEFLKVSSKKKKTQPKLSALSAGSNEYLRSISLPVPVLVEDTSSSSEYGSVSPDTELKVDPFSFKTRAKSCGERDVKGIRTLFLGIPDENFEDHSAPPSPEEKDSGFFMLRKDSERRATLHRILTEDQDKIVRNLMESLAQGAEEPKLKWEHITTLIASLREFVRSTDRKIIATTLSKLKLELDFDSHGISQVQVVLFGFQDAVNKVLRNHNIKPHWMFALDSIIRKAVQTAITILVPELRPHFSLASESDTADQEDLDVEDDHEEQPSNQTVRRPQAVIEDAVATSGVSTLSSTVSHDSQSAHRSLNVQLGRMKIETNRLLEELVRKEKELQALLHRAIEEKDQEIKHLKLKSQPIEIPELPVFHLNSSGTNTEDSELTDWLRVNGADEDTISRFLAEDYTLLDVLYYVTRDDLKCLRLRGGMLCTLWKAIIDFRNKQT
As to the kind of experiment: ASK1 Cell Based Assay (phospho p38 read out in hASK1 transfected HEK293T-AP1 cells). As to conditions: HEK293T-AP1 cells, 1 mM hydrogen peroxide, phospho p38; read-out: Cell Based Assay IC50. The protocol: HEK293T-AP1 cells were seeded at a density of 20,000 cells per well in a poly-d-lysine coated 96 well microplate. Next day, cells were transfected with hASK1-pcDNA3.1 vector using lipofectamine 3000. After 24 hours of transfection, cells were treated with compounds for 24 hours in assay medium. DMSO was used as a vehicle control with a final DMSO concentration of 0.2%. On 4th day, medium was discarded and cells were activated with 1 mM hydrogen peroxide for 1 hour in the presence of compounds. Cells were lysed for 1 hour with 1× lysis buffer on a shaker at 100 rpm. Sixteen microliters of lysate was collected into a 384 well small volume plate. Phospho p38 levels in the lysate was detected by using CisbioPhospho-p38 MAPK (Thr180/Tyr182) #64P38PEG.Four microliters of phospho p38 antibodies labelled with europium cryptate and d2 acceptor, were added to the lysate and incubated overnight. TR-FRET was measured at an excitation of 335 nm and emission was measured at 615 nm and 665 nm in BMG FLUOstar multimode reader.
Compounds were assessed for ASK1 inhibition based on phospho p38 read out. […] Background control values were susbtracted from vehicle control as well as from compound treated wells.

A further assay deals with T2, recombinant ASK1 (Homo sapiens, UniProt Q99683).
T2 construct: purchased Carna Biosciences
The experiment in a line: ASK1 Biochemical Assay (HTRF KinEASE-STK S3). As to conditions: ATP 100 μM; read-out: Biochemical Assay IC50. On the procedure: ASK1 biochemical assay was standardized using recombinant ASK1 (Carna Biosciences), substrate and detection reagents from Cisbio HRTF KinEASE-STK S3 kit. Enzyme concentration, ATP, biotinylated STK substrate and STK antibodies were titrated for enzyme assay. Assay was carried out in ASK1 kinase buffer, 10 mM MOPS pH-7, 10 mM Mg-acetate, 1 mM DTT, 0.025% NP40, 1.5% glycerol and 0.05% BSA. DMSO was used as vehicle control with a final concentration of 1%. A 5 ng of ASK1 enzyme was incubated with compound for 1 hour at 23° C. on a shaker at 100rpm. ATP and biotin substrate was added at a final concentration of 100 μM and 1 μM and incubated for 3 hours at 23° C. on a shaker at 100rpm. […] Delta F ratios were calculated from data obtained at excitation (337 nm) and emission wavelengths (665 nm and 620-10 nm). Substrate blank values was considered as negative control. Values from negative control was substrated from vehicle control and compound treated wells. Enzyme inhibition by compounds were calculated from vehicle controls, which represent uninterrupted enzyme's activity.

As to `CNS(=O)(=O)c1ccc(N2CCN(c3cccc(-c4nncn4C(C)C)n3)C2=O)cc1` [Example 1045, 4-(3-(6-(4-isopropyl-4H-1,2,4-triazol-3-yl)pyridin-2-yl)-2-oxoimidazolidin-1-yl)-N-methylbenzenesulfonamide], the IC50 at Human ASK1 is under 1000 nM; on recombinant ASK1 it was under 100 nM.

As to `CNC(=O)C1CCN(Cc2ccc(N3CCN(c4cccc(-c5nncn5C(C)C)n4)C3=O)cc2)CC1` [Example 1128, 1-(4-(3-(6-(4-isopropyl-4H-1,2,4-triazol-3-yl)pyridin-2-yl)-2-oxoimidazolidin-1-yl)benzyl)-N-methylpiperidine-4-carboxamide], the IC50 at Human ASK1 is over 1000 nM; on recombinant ASK1 it was under 100 nM.

In the case of `Cc1cc(N2CCN(c3cccc(-c4nncn4C(C)C)n3)C2=O)ccc1S(C)(=O)=O` [Example 1029, 1-(6-(4-isopropyl-4H-1,2,4-triazol-3-yl)pyridin-2-yl)-3-(3-methyl-4-(methylsulfonyl)phenyl)imidazolidin-2-one], the values for the IC50 on Human ASK1 and at recombinant ASK1 were over 1000 nM and under 100 nM, respectively.

On to `CNC(=O)[C@H]1CCN(c2ccc(N3CCN(c4cccc(-c5nncn5C(C)C)n4)C3=O)cc2)C1` [Example 1131, (S)-1-(4-(3-(6-(4-isopropyl-4H-1,2,4-triazol-3-yl)pyridin-2-yl)-2-oxoimidazolidin-1-yl)phenyl)-N-methylpyrrolidine-3-carboxamide], for which the IC50 on Human ASK1 was 1560 nM; on recombinant ASK1 it was under 100 nM.

Consider `CC(C)n1cnnc1-c1cccc(N2CCN(c3cc(-c4ccc(S(C)(=O)=O)nc4)ccc3F)C2=O)n1` [Example 1021, 1-(2-fluoro-5-(6-(methylsulfonyl)pyridin-3-yl)phenyl)-3-(6-(4-isopropyl-4H-1,2,4-triazol-3-yl)pyridin-2-yl)imidazolidin-2-one], for which the IC50 is over 10000 nM on Human ASK1 and over 1000 nM on recombinant ASK1.

Turning to `CC(C)n1cnnc1-c1cccc(N2CCN(c3ccc(C(O)C(F)(F)F)cc3)C2=O)n1` (stereo not shown) [Example 1083, 1-(4-(2,2,2-trifluoro-1-hydroxyethyl)phenyl)-3-(6-(4-isopropyl-4H-1,2,4-triazol-3-yl)pyridin-2-yl)imidazolidin-2-one], the IC50 was over 1000 nM on Human ASK1 and under 100 nM at recombinant ASK1.

Turning to `CC(C)n1cnnc1-c1cccc(N2CCN(c3ccc4c(c3)C(C)(C)CS4(=O)=O)C2=O)n1` [Example 1124, 1-(3,3-dimethyl-1,1-dioxido-2,3-dihydrobenzo[b]thiophen-5-yl)-3-(6-(4-isopropyl-4H-1,2,4-triazol-3-yl)pyridin-2-yl)imidazolidin-2-one], the IC50 on Human ASK1 was over 1000 nM; at recombinant ASK1 it was under 100 nM.

With `CC1COCC(=O)N1c1ccc(N2CCN(c3cccc(-c4nncn4C(C)C)n3)C2=O)cc1` (stereo not shown) [Example 1068, 4-(4-(3-(6-(4-isopropyl-4H-1,2,4-triazol-3-yl)pyridin-2-yl)-2-oxoimidazolidin-1-yl)phenyl)-5-methylmorpholin-3-one], the values for the IC50 at Human ASK1 and at recombinant ASK1 were over 100 nM and under 100 nM, respectively.

As to `CNC(=O)C1CCN(c2ccc(N3CCN(c4cccc(-c5nncn5C(C)C)n4)C3=O)cn2)CC1` [Example 1116, 1-(5-(3-(6-(4-isopropyl-4H-1,2,4-triazol-3-yl)pyridin-2-yl)-2-oxoimidazolidin-1-yl)pyridin-2-yl)-N-methylpiperidine-4-carboxamide], the IC50 was under 100 nM on Human ASK1 and under 50 nM at recombinant ASK1.

For `CC(C)n1cnnc1-c1cccc(N2CCN(c3ccc(CS(C)(=O)=O)cc3)C2=O)n1` [Example 1047, 1-(6-(4-isopropyl-4H-1,2,4-triazol-3-yl)pyridin-2-yl)-3-(4-((methylsulfonyl)methyl)phenyl)imidazolidin-2-one], the IC50 on Human ASK1 is over 1000 nM; at recombinant ASK1 it was under 100 nM.

For the compound `CC(C)n1cnnc1-c1cccc(N2CCN(c3ccc(N4CC(C(N)=O)C4)nc3)C2=O)n1` [Example 1115, 1-(5-(3-(6-(4-isopropyl-4H-1,2,4-triazol-3-yl)pyridin-2-yl)-2-oxoimidazolidin-1-yl)pyridin-2-yl)azetidine-3-carboxamide], the IC50 on Human ASK1 was over 1000 nM; at recombinant ASK1 it was under 100 nM.

As to `CC(C)n1cnnc1-c1cccc(N2CCN(c3ccc(N4CC(O)C4)cc3)C2=O)n1` [Example 1090, 1-(4-(3-hydroxyazetidin-1-yl)phenyl)-3-(6-(4-isopropyl-4H-1,2,4-triazol-3-yl)pyridin-2-yl)imidazolidin-2-one], the IC50 at Human ASK1 is over 1000 nM; on recombinant ASK1, under 100 nM.

Take `CC(C)n1cnnc1-c1cccc(N2CCN(c3ccc(N4CC(C#N)C4)nc3)C2=O)n1` [Example 1107, 1-(5-(3-(6-(4-isopropyl-4H-1,2,4-triazol-3-yl)pyridin-2-yl)-2-oxoimidazolidin-1-yl)pyridin-2-yl)azetidine-3-carbonitrile]: the IC50 at Human ASK1 is under 100 nM; at recombinant ASK1, under 50 nM.

For `CC(C)n1cnnc1-c1cccc(N2CCN(c3ccc(N(C)C)nc3)C2=O)n1` [Example 1105, 1-(6-(dimethylamino)pyridin-3-yl)-3-(6-(4-isopropyl-4H-1,2,4-triazol-3-yl)pyridin-2-yl)imidazolidin-2-one], the IC50 is over 100 nM on Human ASK1 and under 100 nM on recombinant ASK1.

Consider `CC(C)n1cnnc1-c1cccc(N2CCN(c3cccc(-n4ccnc4)c3)C2=O)n1` [Example 1002, 1-(3-(1H-imidazol-1-yl)phenyl)-3-(6-(4-isopropyl-4H-1,2,4-triazol-3-yl)pyridin-2-yl)imidazolidin-2-one], for which the IC50 on Human ASK1 is over 1000 nM; on recombinant ASK1, 70 nM.

Turning to `CC(C)n1cnnc1-c1cccc(N2CCN(c3ccc(N4CCC(F)CC4)cc3)C2=O)n1` [Example 1138, 1-(4-(4-fluoropiperidin-1-yl)phenyl)-3-(6-(4-isopropyl-4H-1,2,4-triazol-3-yl)pyridin-2-yl)imidazolidin-2-one], the IC50 is over 100 nM at Human ASK1 and under 100 nM on recombinant ASK1.

Regarding `CC(C)n1cnnc1-c1cccc(N2CCN(c3ccc(C(=O)N4CC(C#N)C4)cc3)C2=O)n1` [Example 1095, 1-(4-(3-(6-(4-isopropyl-4H-1,2,4-triazol-3-yl)pyridin-2-yl)-2-oxoimidazolidin-1-yl)benzoyl)azetidine-3-carbonitrile], the values for the IC50 on Human ASK1 and on recombinant ASK1 were over 1000 nM and under 100 nM, respectively.
